# According to ChEMBL document CHEMBL1132091, “Synthesis and biological activity of substituted bis-(4-hydroxyphenyl)methanes as N-type calcium channel blockers” (Bioorg Med Chem Lett, 1999):
# What was measured:
# [1] = biological target: T1, Voltage-dependent N-type calcium channel subunit alpha-1B (Homo sapiens, UniProt Q00975); assay: Inhibition of N-type calcium channel in IMR-32 human neuroblastoma cell; format: functional
# Target sequence in this assay (Q00975 whole entry): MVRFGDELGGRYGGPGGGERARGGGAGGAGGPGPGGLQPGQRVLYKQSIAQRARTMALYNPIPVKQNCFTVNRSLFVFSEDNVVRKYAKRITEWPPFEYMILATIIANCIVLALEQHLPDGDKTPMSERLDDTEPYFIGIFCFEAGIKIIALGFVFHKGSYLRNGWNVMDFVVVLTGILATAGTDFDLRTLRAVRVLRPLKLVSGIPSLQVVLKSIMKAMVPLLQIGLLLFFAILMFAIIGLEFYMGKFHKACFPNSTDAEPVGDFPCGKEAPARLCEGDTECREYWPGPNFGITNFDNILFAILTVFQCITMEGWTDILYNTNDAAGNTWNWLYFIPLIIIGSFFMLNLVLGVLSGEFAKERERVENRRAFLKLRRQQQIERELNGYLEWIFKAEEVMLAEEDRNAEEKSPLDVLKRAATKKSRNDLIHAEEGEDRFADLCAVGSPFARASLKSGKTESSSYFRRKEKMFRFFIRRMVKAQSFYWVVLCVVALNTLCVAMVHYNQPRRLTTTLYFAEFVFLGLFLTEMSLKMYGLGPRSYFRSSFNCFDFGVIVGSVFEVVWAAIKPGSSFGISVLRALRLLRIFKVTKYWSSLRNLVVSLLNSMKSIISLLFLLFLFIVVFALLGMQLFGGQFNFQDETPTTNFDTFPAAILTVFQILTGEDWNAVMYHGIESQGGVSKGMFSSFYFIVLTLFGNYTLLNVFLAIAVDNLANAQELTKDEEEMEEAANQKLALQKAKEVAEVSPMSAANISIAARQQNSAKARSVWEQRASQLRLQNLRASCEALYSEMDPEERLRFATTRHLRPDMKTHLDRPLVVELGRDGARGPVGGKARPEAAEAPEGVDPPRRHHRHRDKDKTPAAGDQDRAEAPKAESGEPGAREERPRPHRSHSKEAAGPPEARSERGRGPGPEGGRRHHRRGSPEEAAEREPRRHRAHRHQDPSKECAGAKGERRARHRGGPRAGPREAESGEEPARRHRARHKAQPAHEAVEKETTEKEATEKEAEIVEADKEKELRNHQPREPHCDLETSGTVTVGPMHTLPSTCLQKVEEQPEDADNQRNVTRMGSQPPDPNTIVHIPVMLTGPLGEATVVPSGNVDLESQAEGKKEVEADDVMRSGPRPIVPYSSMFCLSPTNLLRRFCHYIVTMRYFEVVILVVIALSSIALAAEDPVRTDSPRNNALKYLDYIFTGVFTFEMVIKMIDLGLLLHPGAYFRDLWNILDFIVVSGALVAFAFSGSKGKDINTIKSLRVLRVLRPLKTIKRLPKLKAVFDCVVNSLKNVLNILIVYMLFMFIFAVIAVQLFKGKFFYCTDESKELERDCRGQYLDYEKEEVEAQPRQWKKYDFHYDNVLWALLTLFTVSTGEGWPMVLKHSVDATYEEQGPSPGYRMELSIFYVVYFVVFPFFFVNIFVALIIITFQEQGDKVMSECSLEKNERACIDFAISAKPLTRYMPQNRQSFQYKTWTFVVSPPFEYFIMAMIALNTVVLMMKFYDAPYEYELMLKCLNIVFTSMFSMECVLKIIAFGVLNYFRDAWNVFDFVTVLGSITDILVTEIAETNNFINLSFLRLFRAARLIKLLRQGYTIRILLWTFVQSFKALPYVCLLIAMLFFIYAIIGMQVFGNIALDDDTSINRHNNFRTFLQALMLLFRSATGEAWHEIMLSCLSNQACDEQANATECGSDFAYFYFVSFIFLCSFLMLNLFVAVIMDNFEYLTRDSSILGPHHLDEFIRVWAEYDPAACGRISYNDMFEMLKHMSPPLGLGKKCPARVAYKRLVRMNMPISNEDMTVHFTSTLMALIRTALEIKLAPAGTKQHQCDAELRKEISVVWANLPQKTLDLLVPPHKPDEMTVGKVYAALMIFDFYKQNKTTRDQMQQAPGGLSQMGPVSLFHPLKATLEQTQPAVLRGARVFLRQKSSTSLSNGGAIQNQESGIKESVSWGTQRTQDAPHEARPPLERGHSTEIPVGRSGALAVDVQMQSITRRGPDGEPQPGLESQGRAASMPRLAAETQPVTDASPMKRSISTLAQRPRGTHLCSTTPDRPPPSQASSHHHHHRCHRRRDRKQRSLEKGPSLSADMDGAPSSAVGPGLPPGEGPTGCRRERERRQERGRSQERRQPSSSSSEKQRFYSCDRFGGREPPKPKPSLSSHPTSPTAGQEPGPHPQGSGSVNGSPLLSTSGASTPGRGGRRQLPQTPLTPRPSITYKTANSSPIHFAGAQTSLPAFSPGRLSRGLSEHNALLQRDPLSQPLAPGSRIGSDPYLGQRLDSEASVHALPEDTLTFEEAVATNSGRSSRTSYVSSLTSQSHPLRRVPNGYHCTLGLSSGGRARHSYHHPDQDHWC
# [2] = biological target: Voltage-gated L-type calcium channel (Rattus norvegicus, UniProt P22002+Q02485+P27732); assay: Inhibition of L-type calcium channels in GH-3 rat pituitary cells; format: functional, cell-based; conditions: pituitary gland cell
# [3] = Blockade of Na+ channels in SCG neurons at 10 uM; format: functional; conditions: Rattus norvegicus
# [4] = Blockade of K+ channels in SCG neurons at 10 uM; format: functional; conditions: Rattus norvegicus
# [5] = biological target: T1, Voltage-dependent N-type calcium channel subunit alpha-1B; assay: Inhibition of N-type calcium channels in IMR-32 human neuroblastoma cells; format: functional, cell-based
# Target sequence in this assay (Q00975 whole entry): as above
# [6] = biological target: T1, Voltage-dependent N-type calcium channel subunit alpha-1B; assay: Inhibition of N-type calcium channels in IMR-32 human neuroblastoma cells at 10 uM; format: functional, cell-based
# Target sequence in this assay (Q00975 whole entry, looked up): as the sequence (Q00975 whole entry) above
Structure (SMILES),IC50 [1] [nM],IC50 [2] [nM],IC50 [5] [nM],inhibition [6] [%],inhibition at 10 µM [3] [%],inhibition at 10 µM [4] [%]
O=C(NCC(c1ccc(O)c(CN2CCCCCC2)c1)c1ccc(O)c(CN2CCCCCC2)c1)C(c1ccccc1)c1ccccc1,1800,,,,,
CC(CCC(O)(c1ccccc1)c1ccccc1)(c1ccc(O)c(CN2CCCCCC2)c1)c1ccc(O)c(CN2CCCCCC2)c1,,900,,,78,61
CC(CCCN(Cc1ccccc1)Cc1ccccc1)(c1ccc(O)c(CN2CCCCCC2)c1)c1ccc(O)c(CN2CCCCCC2)c1,,4100,,,24,28
CC(CCC(=O)N(Cc1ccccc1)Cc1ccccc1)(c1ccc(O)cc1)c1ccc(O)cc1,,,,-6,,

# Further lines, with some results ahead:
IC50 [1] [nM],IC50 [2] [nM],IC50 [5] [nM],inhibition [6] [%],Structure (SMILES),inhibition at 10 µM [3] [%],inhibition at 10 µM [4] [%]
,,35000,,Oc1c(/C=N\C2CCCCC2)ccc2cnccc12,,
970,2000,,,CC(C)(c1ccc(O)c(CN2CCCCCC2)c1)c1ccc(O)c(CN2CCCCCC2)c1,81,77
,9100,,,CC(CCC(c1ccccc1)c1ccccc1)(c1ccc(O)c(CN2CCCCCC2)c1)c1ccc(O)c(CN2CCCCCC2)c1,5,18
1800,,,,CC(CCC(O)(c1ccccc1)c1ccccc1)(c1ccc(O)cc1)c1ccc(O)c(CN2CCCCCC2)c1 (configuration not stated),,
